Measured values: PubChem BioAssay AID651630 (Sanford-Burnham Center for Chemical Genomics, 2012)
Calls of active or inactive are those of the source.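 How the source made its calls: active means lipid-stain IC50 at or below a set limit, with nuclear-stain toxicity IC50 at least five times higher; inactive means the rest.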

Legend:
DAPI = assay: TAG lipid buildup inhibition with viability readout – cell-based, panel, Nile Red and DAPI fluorescence, H9c2, dose response (AID 651630); conditions: H9c2 cells, DAPI nuclear fluorescence (cytotoxicity counter-readout), oleic acid;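 further: cells exposed to compound overnight before fixation and staining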
TAG = assay: as above; conditions: H9c2 cells, Nile Red TAG fluorescence, oleic acid

SMILES	IC50 cytotoxicity (DAPI nuclear signal decrease) (DAPI; mean of runs)	IC50 cytotoxicity (DAPI nuclear signal decrease) (DAPI; run 1)	IC50 cytotoxicity (DAPI nuclear signal decrease) (DAPI; run 2)	IC50 (TAG; mean of runs)	IC50 (TAG; run 1)	IC50 (TAG; run 2)
CN(Cc1ccc(Cl)cc1)C(=O)CCl	> 25 µM (inactive)	> 25 µM	> 25 µM	> 25 µM (inactive)	> 25 µM	> 25 µM
CCCCC(CC)C(=O)Nc1cc(C(=O)NCc2ccc(C)cc2)ccc1N1CCC2(CC1)CC(c1ccccc1)=NO2 (stereo not drawn)	–	> 25 µM	> 25 µM	3.47 µM	3.44 µM	3.5 µM
Cc1cccc(Oc2nc(-c3ccccn3)nc3ccccc23)c1	> 25 µM (inactive)	> 25 µM	> 25 µM	> 25 µM (inactive)	> 25 µM	> 25 µM
COc1ccc(CC(=O)Nc2ccc(-c3ccc4nnc(C)n4n3)cc2)cc1OC	> 25 µM (inactive)	> 25 µM	> 25 µM	16.5 µM (inactive)	15.2 µM	17.8 µM
O=C(CC1C[C@H](C(=O)N2CCOCC2)[C@@]2(CCC3CCCC3)c3[nH]c4ccccc4c3CCN2C1=O)NCC12CC3CC(CC(C3)C1)C2 (stereo partly drawn)	> 25 µM (inactive)	> 25 µM	> 25 µM	> 25 µM (inactive)	> 25 µM	> 25 µM
CCCCC(=NCCc1c(C)[nH]c2ccc(OC)cc12)C1=C(O)CC(c2ccccc2)CC1=O (stereo not drawn)	> 25 µM (inactive)	> 25 µM	> 25 µM	–	16.1 µM	> 25 µM
COc1cc([C@@H]2c3cc4c(cc3[C@H](O)[C@H]3COC(=O)[C@H]23)OCO4)cc(OC)c1OC	> 25 µM (inactive)	> 25 µM	> 25 µM	> 25 µM (inactive)	> 25 µM	> 25 µM
Cc1cc(NC(=O)CSc2nc(-c3ccco3)cc(C(F)(F)F)n2)no1	> 25 µM (inactive)	> 25 µM	> 25 µM	> 25 µM (inactive)	> 25 µM	> 25 µM
CC(=O)O[C@H]1C(=O)[C@]2(C)[C@H]([C@H](OC(=O)c3ccccc3)[C@]3(O)C[C@H](OC(=O)[C@H](O)[C@@H](NC(=O)c4ccccc4)c4ccccc4)C(C)=C1C3(C)C)[C@]1(OC(C)=O)CO[C@@H]1C[C@@H]2O	> 25 µM (inactive)	> 25 µM	> 25 µM	> 25 µM (inactive)	> 25 µM	> 25 µM
COc1cccc(N=Nc2c(O)[nH]c(=S)[nH]c2=O)c1	–	6.31 µM	> 25 µM	> 25 µM (inactive)	> 25 µM	> 25 µM
COc1cc2c3c(c1)c(C1=NC(=S)NC1=O)c(O)n3C(C)(C)C=C2C	> 25 µM (inactive)	> 25 µM	> 25 µM	6 µM	6.7 µM	5.3 µM
COC(=O)Nc1nc2ccc(Sc3ccccc3)cc2[nH]1	> 25 µM (inactive)	> 25 µM	> 25 µM	> 25 µM (inactive)	> 25 µM	> 25 µM
COc1cc(-c2ccc3oc(-c4cccc(C)c4)c(C#CC4(O)CCCCC4)c3c2)cc(OC)c1OC	> 25 µM (inactive)	> 25 µM	> 25 µM	15.9 µM (inactive)	14.2 µM	17.6 µM
COC(=O)C1=C(c2ccc(OCc3ccccc3)cc2)C[C@@H]2CC[C@H]1N2C(=O)NCc1ccc(C(C)(C)C)cc1	> 25 µM (inactive)	> 25 µM	> 25 µM	16.7 µM (inactive)	14.2 µM	19.1 µM
CCOc1ccc(NC(=O)CN(C)C(=O)c2cc(-c3ccc(OC)cc3)nc3ccccc23)cc1OCC	> 25 µM (inactive)	> 25 µM	> 25 µM	10.1 µM	9.04 µM	11.1 µM
CN1N=C(N)c2cn(C3OC(COP(=O)(O)O)C(O)C3O)c3ncnc1c23 (stereo not drawn)	7.78 µM (inactive)	6.76 µM	8.79 µM	12.2 µM	11.1 µM	13.4 µM
COc1ccc(C(C(=O)NC(C)(C)C)N(Cc2cccs2)C(=O)CCC(=O)Nc2cc(C)on2)cc1 (stereo not drawn)	> 25 µM (inactive)	> 25 µM	> 25 µM	13.6 µM	12.7 µM	14.4 µM
COc1cc(OC)c2c(-c3ccccc3)cc(=O)oc2c1C(CCN1CCCC(C)C1)c1ccc2c(c1)OCO2 (stereo not drawn)	> 25 µM (inactive)	> 25 µM	> 25 µM	–	> 25 µM	13.7 µM
C=CC[C@@H](CC(=O)N(CCO)Cc1ccccc1)C(=O)N[C@@H](COC(=O)[C@@H](CC=C)Cc1ccc(F)cc1)Cc1ccccc1	> 25 µM (inactive)	> 25 µM	> 25 µM	9.33 µM	8.74 µM	9.91 µM
COc1cc(NC(=O)c2ccco2)c(OC)cc1NC(=O)CCC(=O)Nc1cccc(C)c1C	> 25 µM (inactive)	> 25 µM	> 25 µM	–	> 25 µM	22.3 µM
O=C1C(Cl)=C(NCc2ccco2)C(=O)c2ccccc21	> 25 µM (inactive)	> 25 µM	> 25 µM	> 25 µM (inactive)	> 25 µM	> 25 µM
O=C(Nc1ccncc1)C1CCCN(S(=O)(=O)c2cccc3cccnc23)C1 (stereo not drawn)	> 25 µM (inactive)	> 25 µM	> 25 µM	> 25 µM (inactive)	> 25 µM	> 25 µM
COc1ccc(-c2cc(CNc3nc(NC(C)C)nc4cc(-c5ccccc5)sc34)on2)cc1	> 25 µM (inactive)	> 25 µM	> 25 µM	6.39 µM	6.47 µM	6.31 µM
COCCNc1nc(NCc2ccc(NC(C)=O)cc2)c2sc(-c3ccccc3)cc2n1	–	19.1 µM	> 25 µM	> 25 µM (inactive)	> 25 µM	> 25 µM
